The values below come from PMC8862293, “Quercetin mitigates rheumatoid arthritis by inhibiting adenosine deaminase in rats” (Molecular Medicine, 2022).

This assay deals with T1, adenosine deaminase (ADA) (Rattus norvegicus, UniProt Q920P6).
T1 construct: native enzyme partially purified from rat joint tissue
T1 sequence (Q920P6 2-352): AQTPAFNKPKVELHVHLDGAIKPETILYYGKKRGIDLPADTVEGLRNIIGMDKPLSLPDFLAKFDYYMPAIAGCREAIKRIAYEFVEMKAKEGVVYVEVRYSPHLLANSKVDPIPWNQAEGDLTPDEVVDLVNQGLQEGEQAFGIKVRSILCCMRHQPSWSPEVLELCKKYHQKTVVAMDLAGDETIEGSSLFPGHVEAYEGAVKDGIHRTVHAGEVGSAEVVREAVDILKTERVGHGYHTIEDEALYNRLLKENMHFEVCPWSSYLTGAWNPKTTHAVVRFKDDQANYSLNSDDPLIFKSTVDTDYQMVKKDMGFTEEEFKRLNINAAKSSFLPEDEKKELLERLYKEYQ
The experiment in a line: Colorimetric (Giusti) ADA activity assay on partially purified rat joint enzyme; Lineweaver-Burk kinetics. The class given is biochemical.

One may read the IC50 as the concentration at which inhibition is half-maximal. On to `O=c1c(O)c(-c2ccc(O)c(O)c2)oc2cc(O)cc(O)c12` [quercetin], for which the midpoint of inhibition, the IC50, lay at 170 µM.
